The subject of this data set is atrial fibrillation of 3 hours to 45 days. Kind of data set: Conversion of recent onset atrial fibrillation to sinus rhythm (Example 3). In kind it is in vivo, human. The settings on record: for Number of Patients Converted to Sinus Rhythm / Patients (%) Converted to Sinus Rhythm: within 90 minutes. As for the experimental part:
The primary endpoint of this study was the proportion of patients with atrial fibrillation duration of 3 hours to 7 days who had treatment-induced conversion to sinus rhythm within 90 minutes of treatment. Secondary endpoints included the time-to-conversion of atrial fibrillation to sinus rhythm in patients with atrial fibrillation duration of 3 hours to 7 days; the proportion of patients with atrial fibrillation of 8 to 45 days who had treatment-induced conversion to sinus rhythm within 90 minutes of treatment, and the proportion of patients in the entire group with atrial fibrillation of 3 hours to 45 days who had treatment-induced conversion to sinus rhythm within 90 minutes of treatment.
336 patients were randomized in a 2:1 ratio of COMPOUND A to placebo (221 patients received COMPOUND A and 115 patients received placebo) and stratified by atrial fibrillation duration of 3 hours to 7 days and 8 to 45 days.
A first 10-minute infusion of a test compound (placebo or 3 mg/kg of COMPOUND A) was given to each patient. A second 10-minute infusion (placebo or 2 mg/kg of COMPOUND A) was given 15 minutes later if atrial fibrillation was not terminated. Safety was assessed by the incidence of adverse events, vital signs, laboratory data, ECG and holter monitoring.

Setting [1] is: 30-day interval following administration.
Where [2] appears, read: AF 8-45 days, 3 mg/kg then 2 mg/kg.
Where [3] appears, read: AF 3 hr-7 days, 3 mg/kg then 2 mg/kg.

The structures appear in SMILES notation.

In the case of `COc1ccc(CCO[C@@H]2CCCC[C@H]2N2CC[C@@H](O)C2)cc1OC.Cl` [COMPOUND A, (1R,2R)-2-[(3R)-hydroxypyrrolidinyl]-1-(3,4-dimethoxyphenethoxy)cyclohexane monohydrochloride], under setting [1], the “patients with recurrence of atrial fibrillation (serious adverse event)” value was 6% and the “patients with serious adverse events” value amounted to 13%. Moreover, the “converted patients relapsed within 24 hrs of administration” value (3 hours to 7 days group converters) is given as “one”. Further, under “3 hours to 7 days group, seventy-five converters”, the “median time to conversion” value is listed as “eleven”. Under setting [2], the “Number of Patients Converted to Sinus Rhythm” value (“Number of Patients Converted” below) was found to be 6 and the “Patients (%) Converted to Sinus Rhythm” value is listed as 8%. Under setting [3], the “Number of Patients Converted” value came out at 75 and the “Patients (%) Converted to Sinus Rhythm” value is given as 52%. In addition, for the setting “Entire Group, AF 3 hr-45 days”, the “Number of Patients Converted” value is recorded as 83 and the “Patients (%) Converted to Sinus Rhythm” value is on record as 38%. Under “in vivo”, the “drug-related Torsades de Pointes” value is “no cases” and the “patients with transient alteration in taste” value is 30%.

Values taken from patent US8263638B2, “Dosing regimens for ion channel modulating compounds” (priority 2004, dated 2012).
